The data set relates to GH3-TRE-Luc cell line. Conditions: read-out: AC50 (uM) modified / 1000, viability, 1 nM T3 present, 24 h.

Counter-ions that a name gives are not always drawn. Like-named read-outs stand apart in the source and are kept apart here. Where only a bound is given, the exact number is not on record here.

`O=C1OC2(c3ccccc31)c1cc(Br)c(O)c(Br)c1Oc1c2cc(Br)c(O)c1Br` [Eosin]: the CC50 by setting is: (Tox21_110001=Tox21_112323) 9.05 µM; (Tox21_110001=Tox21_302152) 8.28 µM. Regarding `C[C@]12CC[C@@H]3c4ccc(O)cc4CC[C@H]3[C@@H]1CC[C@@H]2OC(=O)CCC1CCCC1` [Estradiol cypionate], the CC50 runs as follows: (Tox21_110001=Tox21_110003) 32.5 µM; (Tox21_110001=Tox21_112331) 43.4 µM; (Tox21_110001=Tox21_301818) 86.1 µM. As to `C=C(CC)C(=O)c1ccc(OCC(=O)O)c(Cl)c1Cl` [Ethacrynic acid], the CC50 runs as follows: (Tox21_110001=Tox21_110335) 27 µM; (Tox21_110001=Tox21_201102) 65.9 µM. For `CCOc1ccc2c(c1)C(C)=CC(C)(C)N2` [Ethoxyquin], the CC50 (Tox21_110001=Tox21_110388) is 39.8 µM.

In the case of `COc1cc([C@@H]2c3cc4c(cc3[C@@H](O[C@@H]3O[C@@H]5CO[C@@H](C)O[C@H]5[C@H](O)[C@H]3O)[C@H]3COC(=O)[C@H]23)OCO4)cc(OC)c1O` [Etoposide], the CC50 by setting is: (Tox21_110001=Tox21_110630) 6.45 µM; (Tox21_110001=Tox21_302201) 2.85 µM. In the case of `O=C1OC2(c3ccccc31)c1cc(I)c(O)c(I)c1Oc1c2cc(I)c(O)c1I` [FD&C Red 3], the CC50 came out at 18.4 µM (Tox21_110001=Tox21_202932) and 23.6 µM (Tox21_110001=Tox21_302085).

Turning to `COC(=O)Nc1nc2ccc(Sc3ccccc3)cc2[nH]1` [Fenbendazole], the CC50 runs as follows: (Tox21_110001=Tox21_110649) 0.23 µM; (Tox21_110001=Tox21_301828) 1.53 µM. As for `O=C(NCC1CCCCN1)c1cc(OCC(F)(F)F)ccc1OCC(F)(F)F` (centres unmarked) [Flecainide], the CC50 (Tox21_110001=Tox21_110151) stood at 36.6 µM. Take `CNCCC(Oc1ccc(C(F)(F)F)cc1)c1ccccc1` (centres unmarked) [Fluoxetine]: the CC50 (Tox21_110001=Tox21_110144) is 8.3 µM. With `C[C@]12CC[C@@H]3c4ccc(O)cc4C[C@@H](CCCCCCCCC[S+]([O-])CCCC(F)(F)C(F)(F)F)[C@H]3[C@@H]1CC[C@@H]2O` (some centres unmarked) [Fulvestrant], the CC50 reads like this: (Tox21_110001=Tox21_110939) 0.00438 µM; (Tox21_110001=Tox21_202604) 0.00683 µM; (Tox21_110001=Tox21_303656) 2.26 µM. In the case of `CO[C@@H]1[C@H](OC(=O)/C=C/C=C/C=C/C=C/C(=O)O)CC[C@]2(CO2)[C@H]1[C@@]1(C)O[C@@H]1CC=C(C)C` [Fumagillin], under “Tox21_110001=Tox21_112066”, the CC50 was 42.9 µM. Turning to `O=c1c(-c2ccc(O)cc2)coc2cc(O)cc(O)c12` [Genistein], the CC50 was determined as 24.6 µM (Tox21_110001=Tox21_110161), 38.3 µM (Tox21_110001=Tox21_201428) and 57.7 µM (Tox21_110001=Tox21_300585).

With `CN(C)c1ccc(C(=C2C=CC(=[N+](C)C)C=C2)c2ccc(N(C)C)cc2)cc1` [Gentian Violet], the CC50 is, setting by setting: (Tox21_110001=Tox21_111084) 1.65 µM; (Tox21_110001=Tox21_201762) 0.893 µM; (Tox21_110001=Tox21_300571) 0.536 µM.

For `O=C(O)CCCC(=O)O` [Glutaric acid], the CC50 (Tox21_110001=Tox21_302871) worked out at 35.4 µM. Take `COc1cc2c(c(OC)c1OC)-c1c(cc3c(c1OC)OCO3)C[C@H](C)[C@](C)(O)C2` [Gomisin A]: where the note is “Tox21_110001=Tox21_113433”, the CC50 came to 22.9 µM. As to `O=C(CCCN1CCC(O)(c2ccc(Cl)cc2)CC1)c1ccc(F)cc1` [Haloperidol], the CC50 is, setting by setting: (Tox21_110001=Tox21_110162) 20.6 µM; (Tox21_110001=Tox21_300475) 52.1 µM. As to `CCCCCCCCCCCCCCCC[N+](C)(C)C` [Hexadecyltrimethylammonium bromide], the CC50 was 9.07 µM (Tox21_110001=Tox21_112096) and 11.7 µM (Tox21_110001=Tox21_300853). Regarding `NNc1nncc2ccccc12` [Hydralazine hydrochloride], where the note is “Tox21_110001=Tox21_302496”, the CC50 was found to be 73.4 µM.

With `Oc1ccc(O)cc1` [Hydroquinone], the CC50 by setting is: (Tox21_110001=Tox21_110169) 16 µM; (Tox21_110001=Tox21_202345) 32.2 µM; (Tox21_110001=Tox21_300015) 21.9 µM.

For `CN(C)CCCN1c2ccccc2CCc2ccccc21` [Imipramine], the CC50 (Tox21_110001=Tox21_110174) is 9.04 µM and the CC50 (Tox21_110001=Tox21_301417) is 19.5 µM. Consider `CC(C)(C)NC(=O)[C@@H]1CN(Cc2cccnc2)CCN1C[C@@H](O)C[C@@H](Cc1ccccc1)C(=O)N[C@H]1c2ccccc2C[C@H]1O` [Indinavir sulfate], for which the CC50 (Tox21_110001=Tox21_111687) was 32 µM. For the molecule `NC[C@H]1O[C@H](O[C@H]2[C@H](O)[C@@H](O[C@H]3O[C@H](CO)[C@@H](O)[C@H](N)[C@H]3O)[C@H](N)C[C@@H]2N)[C@H](O)[C@@H](O)[C@@H]1O` [Kanamycin A sulfate], for the setting “Tox21_110001=Tox21_202817”, the CC50 turned out to be 3.08 µM. `Cc1oncc1C(=O)Nc1ccc(C(F)(F)F)cc1` [Leflunomide]: the CC50 runs as follows: (Tox21_110001=Tox21_110182) 9.39 µM; (Tox21_110001=Tox21_301873) over 90 µM. `C#C[C@]1(O)CC[C@H]2[C@@H]3CCC4=CCCC[C@@H]4[C@H]3CC[C@@]21C` [Lynestrenol]: the CC50 came out at 17.1 µM (Tox21_110001=Tox21_110319) and 46.9 µM (Tox21_110001=Tox21_301969). As for `CN(C)c1ccc(C(=C2C=CC(=[N+](C)C)C=C2)c2ccccc2)cc1` [Malachite green oxalate], the CC50 runs as follows: (Tox21_110001=Tox21_110008) 5.84 µM; (Tox21_110001=Tox21_202521) 0.0943 µM. As for `C[C@H](Cc1ccc(O)c(O)c1)[C@@H](C)Cc1ccc(O)c(O)c1` [Masoprocol], where the note is “Tox21_110001=Tox21_110210”, the CC50 turned out to be 9.04 µM. As for `CC1=CC(=O)c2ccccc2C1=O` [Menadione], the CC50 (Tox21_110001=Tox21_301367) was 13 µM. As for `CN1CCCCC1CCN1c2ccccc2Sc2ccc([S+](C)[O-])cc21` (centres unmarked) [Mesoridazine], the CC50 (Tox21_110001=Tox21_112018) came out at 18.9 µM. `CN(Cc1cnc2nc(N)nc(N)c2n1)c1ccc(C(=O)N[C@@H](CCC(=O)O)C(=O)O)cc1` [Methotrexate]: the CC50 (Tox21_110001=Tox21_300269) was 0.164 µM.

The values are drawn from PMC6792352, “Limited Chemical Structural Diversity Found to Modulate Thyroid Hormone Receptor in the Tox21 Chemical Library” (Environmental Health Perspectives, 2019).
